# Assays:
# Rabbit chondrocytes [1] = assay: Hyaluronic acid production in rabbit chondrocytes; type: cell-based; conditions: culture supernatant, per number of viable cells; 12 days culture; hydroxytyrosol 100 ng/ml, glucosamine hydrochloride 4 μg/ml
# Protocol: The promoting effects of hydroxytyrosol and glucosamine hydrochloride on the production of glycosaminoglycan and on the production of hyaluronic acid in chondrocytes were evaluated. Rabbit chondrocytes (rabbit articular chondrocytes in primary culture, F-8, Cell Garage Co., Ltd.) were washed with phosphate buffered saline solution, and then cells were released with 0.05% trypsin-EDTA solution. The released chondrocytes were cultured in DMEM medium containing 10% FBS, 100 U/ml penicillin, 100 μg/ml streptomycin, 100 μM trisodium ascorbyl-2-phosphate (available from SIGMA-ALDRICH Corp.), and 25 mM HEPES (available from Invitrogen Corporation) at 37° C. in a humidified condition with 5% CO2. […] For each group after 12 days culture, the number of viable cells was determined by WST assay. The percentage of the amount of glycosaminoglycan or hyaluronic acid produced by each experimental group, relative to the control group, was calculated according to the following formula: ((amount produced by each experimental group/number of cells of each experimental group)×100)/(amount produced by the control group/number of cells of the control group). The supernatant of cultured cells of each group was collected, and the amount of hyaluronic acid produced was measured using a measurement kit (hyaluronic acid measurement kit, available from Seikagaku Corporation).
# Rabbit chondrocytes [2] = assay: Glycosaminoglycan production in rabbit chondrocytes; type: cell-based; conditions: per number of viable cells; 12 days culture; hydroxytyrosol 100 ng/ml, glucosamine hydrochloride 4 μg/ml
# Protocol: The promoting effects of hydroxytyrosol and glucosamine hydrochloride on the production of glycosaminoglycan and on the production of hyaluronic acid in chondrocytes were evaluated. Rabbit chondrocytes (rabbit articular chondrocytes in primary culture, F-8, Cell Garage Co., Ltd.) were washed with phosphate buffered saline solution, and then cells were released with 0.05% trypsin-EDTA solution. The released chondrocytes were cultured in DMEM medium containing 10% FBS, 100 U/ml penicillin, 100 μg/ml streptomycin, 100 μM trisodium ascorbyl-2-phosphate (available from SIGMA-ALDRICH Corp.), and 25 mM HEPES (available from Invitrogen Corporation) at 37° C. in a humidified condition with 5% CO2. […] For each group after 12 days culture, the number of viable cells was determined by WST assay. The percentage of the amount of glycosaminoglycan or hyaluronic acid produced by each experimental group, relative to the control group, was calculated according to the following formula: ((amount produced by each experimental group/number of cells of each experimental group)×100)/(amount produced by the control group/number of cells of the control group). The amount of glycosaminoglycan produced by the above-mentioned cultured cells was measured using a measurement kit (acid mucopolysaccharide quantification kit, available from Cell Garage Co., Ltd.).
structure (smiles),measurement,setting,value
"Cl.N[C@H]1C(O)O[C@H](CO)[C@@H](O)[C@@H]1O (stereo partly shown) [GAH group, glucosamine hydrochloride, reference compound]",amount of hyaluronic acid produced compared to the control group,Rabbit chondrocytes [1],127.4%
same,amount of glycosaminoglycan produced compared to the control group,Rabbit chondrocytes [2],147.0%
"OCCc1ccc(O)c(O)c1 [HT group, 2-(3,4-Dihydroxyphenyl)ethanol]",amount of hyaluronic acid produced compared to the control group,Rabbit chondrocytes [1],82.9%
same,amount of glycosaminoglycan produced compared to the control group,Rabbit chondrocytes [2],119.8%

# — patent publication US20090325891A1, “Cartilage regeneration-promoting agent” (EISAI FOOD & CHEMICAL CO., LTD., priority 2006, published 2009)
